Positions of bridges follow the written chain, without caps; N, C: chain ends. Residues, ends and D or L forms follow the SMILES beside them. *: point of attachment. Biotin = O=C1N[C@H]2[C@H](CS[C@H]2CCCCC(=O)*)N1

The subject of one test is CAT2. The test can be described thus: Protein-peptide cross-linking, affinity-based isolation and LC–MS/MS. The class given is binding, Arabidopsis thaliana. As to conditions: biotinylated pAtPNP-A, cross-linking in A. thaliana mesophyll cell protoplasts; data set published in ref 44. As to the method: Cross-linking experiments followed by affinity-based isolation and LC-MS/MS identification of […] interactors were performed on A. thaliana (Col-0) wild type (WT) mesophyll cell protoplasts (MCPs) as described in[44].

In test [1] the test system is mitogen-activated protein kinase (MAPK) pathway. As to the kind of experiment: MAPK pathway activation. The settings on record: data not shown.
The next test has as its system CAT. As to the kind of experiment: Total CAT activity in protein extracted from WT seedlings. The class given is biochemical, Arabidopsis thaliana. As to conditions: 1 nM. As to the method:
Enzymatic activity of CAT isozymes and total CAT activities of protein extracted from WT and atpnp-a or cat2-2 mutant lines, when indicated sprayed with 1 nM pAtPNP-A or pScr 20 min before harvesting, were determined zymographically and spectrophotometrically, as described in[56]. Relative quantification of intensity of bands corresponding to different CAT isoforms was performed with ImageJ version 1.48 (https://imagej.nih.gov/ij/). Enzymatic activity of the rCAT2 in the presence of absence of 100 nM rAtPNP-A, pAtPNP-A or pScr were determined with the use of Amplex Red catalase assay kit (Invitrogen) according to the manufacturer’s instructions.
Figure 3 AtPNP-A directly interacts with CAT2 to modulate its enzymatic activity in vitro. (a) Zymogram depicting changes in the enzymatic activity of CAT isoforms extracted from wild type (WT) or cat2-2 knockout mutant seedlings in response to 1 nM pAtPNP-A or pScr. Densitometric semi-quantification of bands corresponding to CAT2, normalized to the loading control (dark-coloured band on zymogram) for WT samples treated with 1 nM pAtPNP-A or pScr (mean ± SD, Student’s t-test, n = 3, P < 0.05). […] (b) Total CAT activity in protein extracted from WT seedlings assayed with Amplex Red catalase assay kit in the presence of 1 nM pAtPNP-A, rAtPNP-A, or pScr. […] (c) Enzymatic activity of rCAT2 in the presence of 100 nM pAtPNP-A, rAtPNP-A, or pScr.

The next test has as its system cGMP. The settings on record: cited from earlier work. The text has this: Similarly, identification of novel receptors targeted by an increasing number of peptidic plant hormones discovered in the last few decades[8],[9] is anticipated. One of those, the plant natriuretic peptides (PNPs), are a group of systemically mobile signals[10] that have a role in the maintenance of salt and water balance[11],[12]. An A. thaliana PNP, termed AtPNP-A (At2g18660; Q9ZV52), has been implicated in several physiological processes ranging from the regulation of stomatal aperture, osmoticum-dependent volume changes[13],[14] and modulation of developmental stage- and tissue-specif ... || A PNP_CAT interaction in plant responses to infecting pathogens is not surprising. CATs commonly function to down-regulate ROS during ABA-induced stomatal closure, and ABA-induced stomatal closure can be inhibited by removal of H2O2 via CAT2[73],[74]. […] Therefore, it is tempting to speculate that AtPNP-A modulates the effect of ABA on stomatal aperture through the interaction w ...

A further test deals with rCAT2. As to the kind of experiment: SPR of CAT2 and AtPNP-A recombinant proteins, CM5 chip, both configurations. The class given is binding, Arabidopsis thaliana. As to conditions: amine coupling, 20 °C. As for the experimental part:
N-terminally 6xHis-tagged AtPNP-A and CAT2 proteins were expressed in BL21 (DE3) One Shot E. coli cells (Life Technologies), purified by affinity chromatography with Ni–NTA beads (Qiagen) and HisTrap HP column (GE Healthcare Lifesciences) as described in[21]. The purity of preparations was verified on 12.5% SDS-PAGE, stained with Coomassie Brilliant Blue (Bio-Rad). Protein identities were confirmed in MS analysis, and protein concentration was determined according to the method of Bradford using BSA as a standard.
SPR experiments were performed at 20 °C on Biacore T100 instrument operated using Biacore T100 control software (version 2.0.2, GE Healthcare Lifesciences) using Series S CM5 or NTA sensor chips as described in[21]. Kinetic analyses were performed at the flow of 100 μL min^−1 with pAtPNP-A (at 3.78 μM and consecutive twofold dilutions; 11 injections included) employed as a ligand and bovine liver CAT (C-40; Sigma) used as an analyte and immobilized on the active surface of the Series S CM5 sensor chip with amine coupling kit, while the surface regeneration was done with solution of glycine, pH 2.0, and the final sensorgram was generated with Scrubber (BioLogic Software Pty Ltd).
Supplementary Figure S3. In vitro association of AtPNP-A and CAT2 recombinant proteins.
(a) Recombinant protein preparations used in SPR analyses. […]

The test system of a further test is stomata. The settings on record: cited from earlier work. The text has this:
A PNP_CAT interaction in plant responses to infecting pathogens is not surprising. CATs commonly function to down-regulate ROS during ABA-induced stomatal closure, and ABA-induced stomatal closure can be inhibited by removal of H2O2 via CAT2[73],[74]. […] Therefore, it is tempting to speculate that AtPNP-A modulates the effect of ABA on stomatal aperture through the interaction w ...

In the case of `CC(C)C[C@@H]1NC(=O)[C@H](CC(N)=O)NC(=O)[C@H](CC(N)=O)NC(=O)[C@H](CCCCN)NC(=O)[C@H](C(C)C)NC(=O)CNC(=O)[C@H](C(C)C)NC(=O)[C@H](C(C)C)NC(=O)[C@H](CC(C)C)NC(=O)[C@H]([C@@H](C)O)NC(=O)[C@H](CCC(=O)O)NC(=O)[C@H](CCCNC(=N)N)NC(=O)[C@H](CCC(N)=O)NC(=O)[C@H]([C@@H](C)O)NC(=O)CNC(=O)[C@H](Cc2ccc(O)cc2)NC(=O)[C@@H](NC(=O)[C@H](C)NC(=O)[C@H](CO)NC(=O)[C@H](CCCNC(=N)N)NC(=O)[C@@H](NC(=O)[C@H](Cc2ccc(O)cc2)NC(=O)[C@@H]2CCCN2)[C@@H](C)O)CSSC[C@@H](C(=O)NCC(=O)N[C@@H](CCCNC(=N)N)C(=O)N[C@@H](CCCNC(=N)N)C(=O)N[C@@H](Cc2ccc(O)cc2)C(=O)N[C@@H](CCCNC(=N)N)C(=O)N[C@H](C(=O)N[C@@H](CCCNC(=N)N)C(=O)N[C@@H](CCCCNC(=O)CCCC[C@@H]2SC[C@@H]3NC(=O)N[C@@H]32)C(=O)O)C(C)C)NC(=O)[C@H](C)NC(=O)[C@H](CCCNC(=N)N)NC(=O)CNC(=O)[C@H](CC(N)=O)NC(=O)[C@H](CCC(N)=O)NC(=O)[C@H](Cc2c[nH]c3ccccc23)NC1=O` [pAtPNP-A] (H-PYTRSACYGTQRETLVVGVKNNLWQNGRACGRRYRVRK(Biotin)-OH; disulfide 7-30; N-terminus and C-terminus assumed), in the test on CAT2, the “Identification of CAT2 by LC–MS/MS” value is on record as “CAT2 was identified by LC–MS/MS only in samples containing pAtPNP-A”. The “Activation of MAPK pathway” value in test [1] is “does not activate mitogen-activated protein kinase (MAPK) pathway”. The “Total CAT activity of protein extracts” value in the test on CAT (WT seedling protein, Amplex Red kit, mean ± SD, n = 3, P < 0.05) is “elevated total CAT activity”. For the same compound, the “H2O2 breakdown by WT seedling protein extract” value in the test with CAT (total protein extracted from WT seedlings, n = 3) was “more rapid H2O2 breakdown”.
“AtPNP-A: An A. thaliana PNP, termed AtPNP-A (At2g18660; Q9ZV52)”: the “Elevation of cGMP” value in the test on cGMP was “rapid elevation of 3′,5′-cyclic guanosine monophosphate (cGMP)”. Besides, in the test on rCAT2, the “SPR binding of recombinant AtPNP-A to CAT2” value is “specific AtPNP-A and CAT2 interaction in vitro”. In the test on stomata, the “Effect on ABA-induced stomatal closure” value was “significantly delay and reduce the extent of ABA-induced stomatal closure”.

The values are drawn from publication PMC7665192, “A natriuretic peptide from Arabidopsis thaliana (AtPNP-A) can modulate catalase 2 activity” (Scientific Reports, 2020).
